Data on two molecules can be found in patent publication US20240041898A9, “NEUROSTEROIDS AND ENANTIOMERS THEREOF FOR THE PREVENTION AND TREATMENT OF NEURODEGENERATIVE CONDITIONS” (priority 2019, published 2024).

Values joined by “and” are separate entries in the source; they are usually repeats but may differ in a detail not shown here. Identical values can stand only once.

One test concerns optic nerve axons. Kind of test: Rat in vivo OHT model, density of optic nerve axons. The conditions noted are these: OHT eyes, intravitreal, 3 weeks after microbead injection; single values. Here is the method: Example 7. Rat in vivo OHT model induced by intracameral injection of microbeads—For induction of ocular hypertension (OHT) in vivo, sterile 6 μm polystyrene microbeads were injected into the anterior chamber of the left eye of each animal using a single-step, sclero-corneal tunnel approach with a 35G nanoneedle (FIG. 4A). […] After stabilization of elevated IOP, animals were randomly divided into 3 groups (non-treated OHT, AlloP injection, and ent-AlloP injection). AlloP and ent-AlloP were administered as a one-time intravitreal injection one week following bead injection. Non-treated OHT animals received sterile vehicle intravitreally. As a further control, vehicle was intravitreally injected 7 days after intracameral administration of 10 μl of PBS. Three weeks after bead injections, IOP was 26.7±3.7 mmHg in non-treated OHT eyes compared to 9.9±0.9 mmHg in control eyes.
Example 9. RGC survival by neurosteroids during IOP elevation—In whole mounted retinas, glaucomatous damage was visible as reduced numbers of cells that were positive for NeuN three weeks after microbead injection in non-treated OHT eyes compared with control eyes (FIG. 4J, 4K). […] In sections of optic nerves stained with 2% toluidine blue, axonal loss was detected 3 weeks after microbead injection in non-treated OHT eyes compared with control eyes (FIG. 4O, 4p). […]

Test [1] relates to retinal ganglion cells (RGCs). The test can be described thus: Ex vivo pressure-loaded whole mounted retinas, NeuN-positive RGC survival. The test is classed as cell-based, rat. To be noted: 75 mmHg, 1 μM; for RGC Survival (number of NeuN-positive cells), individual areas 1-5: single values. As for the experimental part:
Rat ex vivo Eyecup Preparation—Rat ex vivo eyecups were prepared from 28-32 day old male Sprague-Dawley rats (Charles River Laboratories International Inc., Wilmington, MA). The anterior half of the enucleated eyes was carefully removed to make eyecup preparations. Eyecups were placed at the bottom of a 100 ml glass beaker filled with aCSF (artificial cerebrospinal fluid) containing (in mM): 124 NaCl, 5 KCl, 2 MgSO4, 2 CaCl2, 1.25 NaH2PO4, 22 NaHCO3, and 10 glucose, and incubated at 30° C. for 24 hours using a closed pressure-loading system (FIG. 1C). pH was maintained at 7.35 to 7.40. In the closed-pressure system, a glass beaker with the eyecup was placed at the bottom of an acrylic pressure chamber (2,000 ml volume). A 95% O2-5% CO2 gas mixture was delivered through disposable plastic tubing with an infusion valve and a control dial on the lid of the pressure chamber and an air filter (Cat #SLGP033RS, Merck Millipore, Billerica, MA). The plastic tubing delivering the gas terminated 1 cm above the bottom of the beaker.
Acutely prepared eyecups were incubated in gassed aCSF for at least 1 h at 30° C. before pressure loading. In some experiments, AlloP (1 μM), ent-AlloP (1 μM), and 3-MA (10 mM) were dissolved in aCSF at the time of experiment and administered by bath perfusion. Eyecup preparations were treated with these drugs for 1 h at 30° C. before pressure loading. For pressure loading, the 95% O2-5% CO2 gas mixture was infused until the pressure reading given by a manometer reached the appropriate level. The pressure was then locked by adjusting the control dial of the effusion valve, and monitored continuously for 24 h at 30° C.
Preparation of whole mounted retinas and immunostaining—The retina was carefully detached from the eye by making cuts along the ora serrata and optic nerve. […] Each quadrant was analyzed using a 1 mm^2 frame, and counted using Image-Pro Plus software. […] RGC counts were analyzed using Image-Pro Plus software. NeuN positive RGCs were determined as the measurement of 5 different areas from three eyes per experimental condition.

Regarding `CC(=O)[C@H]1CC[C@H]2[C@@H]3CC[C@H]4C[C@H](O)CC[C@]4(C)[C@H]3CC[C@]12C` [AlloP, allopregnanolone], the “Density of axons in ONs, individual 1-5” value in the test on optic nerve axons is 33 Axons × 10000/square mm (2×) and 27 Axons × 10000/square mm and 32 Axons × 10000/square mm and 29 Axons × 10000/square mm. For the same molecule, in test [1] (Average of 5), the “RGC Survival (number of NeuN-positive cells), Average” value was 2084.0 per square millimeter. For the same molecule, the “RGC Survival (number of NeuN-positive cells), individual areas 1-5” value in test [1] was 2220 per square millimeter and 2240 per square millimeter and 1860 per square millimeter and 2260 per square millimeter and 1840 per square millimeter.

In the case of `CC(=O)[C@@H]1CC[C@@H]2[C@H]3CC[C@@H]4C[C@@H](O)CC[C@@]4(C)[C@@H]3CC[C@]21C` [ent-AlloP, ent-allopregnanolone], the “Density of axons in ONs, individual 1-5” value in the test on optic nerve axons is 31 Axons × 10000/square mm and 33 Axons × 10000/square mm and 32 Axons × 10000/square mm and 29 Axons × 10000/square mm and 27 Axons × 10000/square mm. Besides, the “RGC Survival (number of NeuN-positive cells), individual areas 1-5” value in test [1] was 2120 per square millimeter and 2280 per square millimeter and 2000 per square millimeter and 1840 per square millimeter and 1860 per square millimeter.
